Assay results reported in patent US20080027129A1 (L'OREAL, priority 2006, published 2008).
Like-named read-outs stand apart in the source and are kept apart here.

What was measured:
GSH = details: described in the literature; cited from earlier work
[1] = test system: normal human melanocytes (NHM); assay: reactive oxygen species (ROS) generated by an H2O2 stress in cultured normal human melanocytes; assay type: cell-based; details: NHM pretreated 12 h/18 h with compound, H2DCFDA 10 μM, H2O2 250 μM, read after 15 minutes; FIG. 1
Protocol: Protocol for measuring the reactive oxygen species (ROS) generated by an H2O2 stress in cultured normal human melanocytes (NHM)
The normal human melanocytes (NHMs) were inoculated at D0 at the density of 4×10^4 cells/cm^2. […] After 20 minutes, the H2DCFDA solution was replaced with the culture medium. The NHMs were left for 30 minutes before adding the H2O2 solution (250 μM). The fluorescence was measured after 15 minutes in a fluoroscan (excitation: 485 nm, emission: 538 nm).
The compounds studied were used depending on their properties (concentration, preincubation time). N-Acetylcysteine (A9165-Sigma) was used as a reference molecule. The melanocytes were pretreated, 12 h/18 h at 37° C., with the compound studied in the culture medium, before being brought into contact for 20 minutes with H2DCFDA (10 μM in PBS). The H2DCFDA solution was then replaced with the culture medium containing the active agent studied. After incubating for 30 minutes the oxidative stress was induced by addition of 250 μM of H2O2 in the culture medium. The fluorescence was measured after 15 minutes in a fluoroscan (excitation: 485 nm, emission: 538 nm).
The results represent the crude fluorescence data, from which the auto-fluorescence values of “blank” cells, expressed in fluorescence units (fu), obtained during a representative experiment, have been deducted, see FIG. 1.

[2] = test system: normal human melanocytes (NHMs); assay: viability of cultured normal human melanocytes after a dopamine stress (Alamar Blue); assay type: cell-based; set-up: cell viability after dopamine stress: scale not given here; details: for viability at 200 µM: Homo sapiens, Melanocyte, compound 200 μM, read-out: cell viability after dopamine stress; for viability at 200 µM / cell viability after dopamine stress: D3, Alamar Blue
Protocol: 1-C-1. Effect of 3H-1,2-dithiole-3-thione (D3T) on the Viability of Cultured Normal Human Melanocytes (NHMs) After a Dopamine Stress:
The normal human melanocytes (NHMs) were inoculated at DO at the density of 1×10^4 cells/cm^2. After adhesion of the cells (3 h), the active agent studied was added to the culture medium. After 2 hours, the dopamine was added to the culture medium to begin the stress. At D3, the cell viability was measured using Alamar Blue (UP669413 UPTIMA, Interchim) according to the instructions of the supplier.

Compound: S=c1ccss1 [D3T, 3H-1,2-dithiole-3-thione]
- level of GSH (GSH): increasing the level of GSH
- reactive oxygen species (ROS) induced by H2O2, fluorescence [1]: decrease of the reactive oxygen species

Compound: CC(=O)N[C@@H](CS)C(=O)O [NAC, N-Acetylcysteine, reference compound]
- viability at 200 µM ([2]; dopamine 0.00 μM): 100%
- viability at 200 µM ([2]; dopamine 20.00 μM): 102%
- viability at 200 µM ([2]; dopamine 40.00 μM): 102%
- viability at 200 µM ([2]; dopamine 60.00 μM): 99.7%
- viability at 200 µM ([2]; dopamine 70.00 μM): 95.7%
- viability at 200 µM ([2]; dopamine 80.00 μM): 89.4%
- viability at 200 µM ([2]; dopamine 90.00 μM): 77.7%
- viability at 200 µM ([2]; dopamine 100.00 μM): 23.8%

Compound: anethole dithiolethione [ADT]
- survival of the cells under dopamine stress compared with the reference compound ([2]; FIG. 3, versus N-acetylcysteine): increases the survival of the cells with a better efficiency than N-acetylcysteine
- cell viability after dopamine stress ([2]; compound 2 μM, dopamine 0.00 μM): 100.00
- cell viability after dopamine stress ([2]; compound 2 μM, dopamine 20.00 μM): 97.48
- cell viability after dopamine stress ([2]; compound 2 μM, dopamine 40.00 μM): 100.00
- cell viability after dopamine stress ([2]; compound 2 μM, dopamine 60.00 μM): 98.74
- cell viability after dopamine stress ([2]; compound 2 μM, dopamine 70.00 μM): 95.90
- cell viability after dopamine stress ([2]; compound 2 μM, dopamine 80.00 μM): 92.43
- cell viability after dopamine stress ([2]; compound 2 μM, dopamine 90.00 μM): 82.02
- cell viability after dopamine stress ([2]; compound 2 μM, dopamine 100.00 μM): 51.42
- cell viability after dopamine stress ([2]; compound 15 μM, dopamine 0.00 μM): 100.00
- cell viability after dopamine stress ([2]; compound 15 μM, dopamine 20.00 μM): 92.68
- cell viability after dopamine stress ([2]; compound 15 μM, dopamine 40.00 μM): 95.22
- cell viability after dopamine stress ([2]; compound 15 μM, dopamine 60.00 μM): 95.54
- cell viability after dopamine stress ([2]; compound 15 μM, dopamine 70.00 μM): 94.90
- cell viability after dopamine stress ([2]; compound 15 μM, dopamine 80.00 μM): 94.90
- cell viability after dopamine stress ([2]; compound 15 μM, dopamine 90.00 μM): 87.58
- cell viability after dopamine stress ([2]; compound 15 μM, dopamine 100.00 μM): 81.21
- level of GSH (GSH): increasing the level of GSH
- reactive oxygen species (ROS) induced by H2O2, fluorescence [1]: decrease of the reactive oxygen species

Compound: C=CCN=C=S [allyl isothiocyanate]
- level of GSH (GSH): increasing the level of GSH

Compound: C[S@@+]([O-])CCCCN=C=S [sulforaphane]
- level of GSH (GSH): increasing the level of GSH

Compound: S=C=NCCc1ccccc1 [phenethyl isothiocyanate]
- level of GSH (GSH): increasing the level of GSH
